Test results published in the supplement of paper PMC10307832.

Legend:
Experiment in all cases: relative viability (nuclei count vs DMSO), 5 days (fraction); higher = more cells survive
XMD14-99 + Palbociclib = compound: CN1CCN(CC1)C2=CC(=C(C=C2)NC3=NC(=C(S3)C(=O)C4=C(C=CC=C4Cl)Cl)N)OC [XMD14-99] + CC(=O)c1c(C)c2cnc(Nc3ccc(N4CCNCC4)cn3)nc2n(C2CCCC2)c1=O [Palbociclib] (partner 0.5 µM)
How it was run: (§1)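 Nuclei were stained with Hoechst during a one-step fixation (final 0.05% Triton X-100, 1% formaldehyde, 1 ug/ml Hoechst) carried out 5 days after dosing, then counted on 4× images. The cells, lung cancer lines in 1536-well plates, had been dosed by pin tool the day after seeding with one drug alone or a fixed anchor-drug dose plus five library-drug doses (not always all listed) in √10 steps. Relative viability is the nuclei count in treated wells divided by that in vehicle wells, and each value is the median of duplicate plates.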

XMD14-99 + Pemetrexed = compound: CN1CCN(CC1)C2=CC(=C(C=C2)NC3=NC(=C(S3)C(=O)C4=C(C=CC=C4Cl)Cl)N)OC [XMD14-99] + Nc1nc2[nH]cc(CCc3ccc(C(=O)N[C@@H](CCC(=O)O)C(=O)O)cc3)c2c(=O)[nH]1 [Pemetrexed] (partner 0.2 µM)
How it was run: as §1

AZD1208 + Decitabine = compound: N[C@@H]1CCCN(c2c(/C=C3\SC(=O)NC3=O)cccc2-c2ccccc2)C1 [AZD1208] + Nc1ncn([C@H]2C[C@H](O)[C@@H](CO)O2)c(=O)n1 [Decitabine] (partner 2 µM)
How it was run: as §1

AZD1208 + Alpelisib = compound: N[C@@H]1CCCN(c2c(/C=C3\SC(=O)NC3=O)cccc2-c2ccccc2)C1 [AZD1208] + Cc1nc(NC(=O)N2CCC[C@H]2C(N)=O)sc1-c1ccnc(C(C)(C)C(F)(F)F)c1 [Alpelisib] (partner 2 µM)
How it was run: as §1

Row | Cell Line | relative viability (XMD14-99 + Palbociclib; first compound 0.08 µM) | relative viability (XMD14-99 + Palbociclib; first compound 0.8 µM) | relative viability (XMD14-99 + Palbociclib; first compound 2.53 µM) | relative viability (XMD14-99 + Palbociclib; first compound 8 µM) | relative viability (XMD14-99 + Pemetrexed; first compound 0.08 µM) | relative viability (XMD14-99 + Pemetrexed; first compound 0.8 µM) | relative viability (XMD14-99 + Pemetrexed; first compound 2.53 µM) | relative viability (XMD14-99 + Pemetrexed; first compound 8 µM) | relative viability (AZD1208 + Decitabine; first compound 0.08 µM) | relative viability (AZD1208 + Decitabine; first compound 0.253 µM) | relative viability (AZD1208 + Decitabine; first compound 0.8 µM) | relative viability (AZD1208 + Decitabine; first compound 2.53 µM) | relative viability (AZD1208 + Decitabine; first compound 8 µM) | relative viability (AZD1208 + Alpelisib; first compound 0.08 µM) | relative viability (AZD1208 + Alpelisib; first compound 0.253 µM) | relative viability (AZD1208 + Alpelisib; first compound 0.8 µM) | relative viability (AZD1208 + Alpelisib; first compound 2.53 µM) | relative viability (AZD1208 + Alpelisib; first compound 8 µM)
1 | NCI-H441 | 0.223 | 0.19 | 0.225 | 0.22 | 0.257 | 0.289 | 0.235 | 0.254 | 0.205 | 0.298 | 0.291 | 0.224 | 0.264 | 0.55 | 0.787 | 0.617 | 0.466 | 0.446
2 | NCI-H322M | 0.449 | 0.523 | 0.472 | 0.514 | 0.654 | 0.57 | 0.606 | 0.535 | 0.669 | 0.659 | – | 0.669 | 0.713 | 0.718 | 0.718 | 0.75 | 0.73 | 0.821
3 | NCI-H1993 | 0.7 | 0.682 | 0.533 | 0.625 | 0.708 | 0.541 | 0.524 | 0.448 | 0.526 | 0.586 | 0.613 | 0.5 | 0.468 | – | 0.608 | 0.683 | 0.737 | 0.63
4 | COR-L23 | 0.266 | 0.295 | 0.299 | 0.18 | 0.192 | 0.207 | 0.166 | 0.184 | 0.439 | 0.502 | 0.412 | 0.396 | 0.395 | 0.735 | 0.64 | 0.715 | 0.721 | 0.657
5 | NCI-H2126 | 0.326 | 0.337 | 0.37 | 0.362 | 0.634 | 0.681 | 0.677 | 0.537 | 0.563 | 0.641 | 0.523 | 0.501 | 0.475 | 0.703 | 0.724 | 0.652 | 0.642 | 0.624
6 | LC-2-ad | 0.525 | 0.446 | 0.466 | 0.487 | 0.268 | 0.298 | 0.268 | 0.293 | 0.79 | 0.8 | 0.781 | 0.879 | 0.79 | 0.816 | 0.592 | 0.787 | 0.894 | 0.794
7 | NCI-H1915 | 0.555 | 0.552 | 0.516 | 0.517 | 0.472 | 0.475 | 0.431 | 0.426 | 0.249 | 0.263 | 0.235 | 0.271 | 0.231 | 1.05 | 1.09 | 1.05 | 1.03 | 1.03
8 | NCI-H1793 | 0.286 | 0.316 | 0.314 | 0.284 | 0.947 | 1 | 0.83 | 0.631 | 0.447 | 0.448 | 0.509 | 0.463 | 0.363 | 0.639 | 0.778 | 0.664 | 0.507 | 0.498
9 | NCI-H2085 | 0.453 | 0.447 | 0.462 | 0.41 | 0.9 | 0.899 | 0.839 | 0.65 | 0.555 | 0.491 | 0.587 | 0.544 | 0.449 | 0.921 | 0.979 | 0.885 | 1.02 | 1.03
10 | NCI-H2228 | 0.749 | 0.56 | 0.774 | 0.278 | 0.324 | 0.319 | 0.398 | 0.257 | – | – | – | – | – | 0.706 | 0.629 | 0.609 | – | 0.466
11 | NCI-H596 | – | – | – | – | 0.465 | 0.48 | 0.447 | 0.494 | 0.847 | 1.01 | 0.901 | 0.902 | 0.756 | 0.387 | 0.573 | 0.351 | 0.376 | 0.353
12 | ChaGo-K-1 | 0.972 | 0.93 | 0.975 | 0.873 | 0.257 | 0.256 | 0.263 | 0.233 | 0.522 | 0.509 | 0.399 | 0.481 | 0.465 | – | – | – | – | –
13 | NCI-H522 | 0.858 | 1.06 | 0.906 | 1.05 | 0.867 | 1.04 | 1.14 | 1.08 | 0.678 | 0.634 | 0.73 | 0.643 | 0.636 | – | – | – | – | –
14 | NCI-H1299 | – | – | – | – | – | – | – | – | – | – | – | – | – | 1.08 | 1.08 | 1.07 | 1.03 | 1.13
15 | NCI-H1650 | 0.389 | 0.328 | 0.345 | 0.306 | 0.387 | 0.369 | 0.359 | 0.321 | 0.513 | 0.502 | 0.403 | 0.376 | 0.449 | – | – | – | – | –
16 | NCI-H1648 | 0.261 | 0.267 | 0.268 | 0.289 | 0.61 | 0.564 | 0.554 | 0.542 | 0.631 | 0.476 | 0.464 | 0.547 | 0.567 | – | – | – | – | –
17 | NCI-H2342 | 0.564 | 0.614 | 0.576 | 0.544 | 0.785 | 0.748 | 0.815 | 0.762 | 0.772 | 0.736 | 0.595 | 0.674 | 0.581 | – | – | – | – | –
18 | SW 900 | 0.57 | 0.567 | 0.514 | 0.359 | 0.518 | 0.476 | 0.461 | 0.471 | 0.456 | 0.407 | 0.382 | 0.395 | 0.444 | – | – | – | – | –
19 | A549 | – | – | – | – | – | – | – | – | 0.238 | 0.301 | 0.218 | 0.314 | 0.17 | 0.676 | 0.622 | 0.48 | 0.687 | 0.448
20 | NCI-H727 | 0.691 | 0.652 | 0.609 | 0.544 | – | – | – | – | 0.906 | 0.689 | 0.589 | 0.867 | 0.854 | 0.542 | 0.543 | 0.496 | 0.497 | 0.387
21 | NCI-H1563 | – | – | – | – | 0.884 | 0.937 | 0.787 | 0.751 | – | – | – | – | – | 0.898 | 0.826 | 0.954 | 0.951 | 0.834
22 | ABC-1 | 0.783 | 0.722 | 0.651 | 0.634 | – | – | – | – | 0.926 | 1.07 | 0.992 | 0.989 | 0.821 | 1.14 | 0.727 | 0.769 | 0.903 | 0.935
